One assay has as its system MDA-MB-436 cells. The assay can be described thus: Proliferation assay MDA-MB-436, negative control cell line (Alamar Blue, 144 h). It counts as cell-based. The note with it: arithmetic mean. Put shortly:
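Viability read as Alamar Blue fluorescence (590 nm, 2 h) after 144 h compound exposure at 37 °C, 5% CO2. Cells seeded at 3000 per well in 2.5% FBS DMEM/Ham's F12, dosed a day later over 2.0×10E-9–2.0×10E-5 M in 9 steps with 0.2% DMSO, in triplicate.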

The target of assay [1] is Recombinant human His-tagged Kat6a protein (amino acids 194-810) (Homo sapiens (Human), UniProt Q92794). The assay can be described thus: Kat6a activity assay (TR-FRET, acetylation of biotinylated Histone-H4-derived peptide). The class given is biochemical. The note with it: 60 mins at 22° C., read-out: KAT6A-DPF/HAT domain IC50 [mol/l] (arithmetic mean). Put shortly:
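TR-FRET read-out of H4 K8 acetylation, using anti-acetyl-K8 antibody and streptavidin acceptor, after anacardic acid stop; IC50 from four-parameter regression normalized to DMSO. Reaction: recombinant human Kat6a aa 194-810 (insect-cell derived), 220 nM H4 1-24 peptide, 600 nM acetyl-CoA, pH 8, 22 °C, 60 min, compounds 0.01-20 μM.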
In general terms: TR-FRET usually uses a lanthanide donor and a delayed reading to cut background.

A further assay has as its system ZR-75-1 cells. Kind of assay: Proliferation assay ZR-75-1 (Alamar Blue, 144 h). As to conditions: arithmetic mean, read-out: ZR75-1 proliferation assay, EC50 [M] (arithmetic mean). It counts as cell-based. Put shortly:
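Alamar Blue fluorescence (590 nm, 2 h reagent step) measured viability after 144 h compound exposure at 37 °C, 5% CO2. Compounds spanned 2.0×10E-5 to 2.0×10E-9 M in 9 dilutions at 0.2% DMSO, in triplicate, added 24 h after plating 3000 cells/well in RPMI 1640 plus 2.5% FBS.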
In general terms: The colour change of resazurin is a common sign of viable cells or microbes.

For assay [2], the target named is Recombinant human GST-tagged Kat6b protein (431-end). Kind of assay: Kat6b activity assay (TR-FRET, acetylation of biotinylated Histone-H4-derived peptide). It counts as biochemical. The note with it: 30 mins at 22° C., read-out: KAT6B activity assay IC50 [mol/l] (arithmetic mean).
Assay [3] has as its system ESR1 transcription (luciferase signal in MVLN cells). The assay can be described thus: Repression of ESR1 transcription, luciferase reporter in MVLN cells. The class given is cell-based. The note with it: inhibition of luciferase signal in MVLN cells, arithmetic mean. Put shortly: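 Luminescence from an ER-driven Vitellogenin A2 element–luciferase reporter was measured after 24 h of treatment of MVLN cells, in duplicate wells. Alamar Blue (2 h, 530/590 nm) served as a cell-density control.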
(In general: A reporter such as luciferase makes a cellular process visible.)

The mark [4] stands for this setting: Homo sapiens, MDA-MB-436, 144 h.

Like-named read-outs stand apart in the source and are kept apart here.

Chain of Recombinant human His-tagged Kat6a protein (amino acids 194-810) (Q92794 194-810): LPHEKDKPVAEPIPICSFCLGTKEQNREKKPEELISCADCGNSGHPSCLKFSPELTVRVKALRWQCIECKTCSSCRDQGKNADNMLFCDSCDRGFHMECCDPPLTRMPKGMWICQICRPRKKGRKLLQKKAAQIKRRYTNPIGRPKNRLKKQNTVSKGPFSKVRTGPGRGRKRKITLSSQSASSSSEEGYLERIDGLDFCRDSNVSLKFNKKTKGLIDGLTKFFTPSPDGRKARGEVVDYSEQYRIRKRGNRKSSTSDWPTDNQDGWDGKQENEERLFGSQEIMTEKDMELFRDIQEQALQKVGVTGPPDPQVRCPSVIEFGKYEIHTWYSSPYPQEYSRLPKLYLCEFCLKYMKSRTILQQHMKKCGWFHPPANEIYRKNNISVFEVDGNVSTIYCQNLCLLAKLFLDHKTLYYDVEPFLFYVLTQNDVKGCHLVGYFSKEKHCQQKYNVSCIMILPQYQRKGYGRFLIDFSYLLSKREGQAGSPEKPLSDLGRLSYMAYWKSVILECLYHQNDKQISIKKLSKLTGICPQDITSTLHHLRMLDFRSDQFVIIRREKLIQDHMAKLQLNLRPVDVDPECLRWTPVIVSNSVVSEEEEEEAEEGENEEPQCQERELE

In the case of `CN(C)c1ccc2cc(C(=O)NS(=O)(=O)c3cc(Cl)c(Cl)cc3OC(F)(F)F)oc2c1` [Example 137, N-[4,5-Dichloro-2-(trifluoromethoxy)benzene-1-sulfonyl]-6-(dimethylamino)-1-benzofuran-2-carboxamide], the EC50 is over 20000 nM in the assay on MDA-MB-436 cells (setting [4]) and 5.61e-06 M with ZR-75-1 cells (Homo sapiens, ZR-75-1, 144 h). The IC50 is 81.5 nM in assay [1]; 107 nM in assay [2]; 5500 nM in assay [3] (Homo sapiens, MVLN).
The matching figures for `Cc1ccccc1-c1ccccc1S(=O)(=O)NC(=O)c1cc2ccc(N(C)C)cc2o1` [Example 17, 6-(Dimethylamino)-N-(2′-methyl[1,1′-biphenyl]-2-sulfonyl)-1-benzofuran-2-carboxamide]: over 20000 nM, 3.87e-08 M, 72.4 nM, 64.5 nM and 148 nM.
As to `COc1cc(C)c(Cl)cc1S(=O)(=O)NC(=O)c1cc2ccc(N(C)C)cc2o1` [Example 138, N-(5-Chloro-2-methoxy-4-methylbenzene-1-sulfonyl)-6-(dimethylamino)-1-benzofuran-2-carboxamide], the EC50 is over 20000 nM with MDA-MB-436 cells (setting [4]) and 5.01e-07 M in the assay with ZR-75-1 cells (Homo sapiens, ZR-75-1, 144 h). Further, the IC50 was 56.7 nM in assay [1]; 79.5 nM in assay [2]; 216 nM in assay [3] (Homo sapiens, MVLN).
Consider `Cc1ccc2cccc(S(=O)(=O)NC(=O)c3cc4ccc(N(C)C)cc4o3)c2n1` [Example 21, 6-(Dimethylamino)-N-(2-methylquinoline-8-sulfonyl)-1-benzofuran-2-carboxamide], for which the EC50 came to 15300 nM with MDA-MB-436 cells and 4.21e-08 M with ZR-75-1 cells. The IC50 is 23.4 nM in assay [1], 26.7 nM in assay [2] and 48.5 nM in assay [3].
`O=C(NS(=O)(=O)c1ccccc1-c1ccccc1)c1cc2ccc(N3CCCC3)cc2o1` [Example 45, N-([1,1′-Biphenyl]-2-sulfonyl)-6-(pyrrolidin-1-yl)-1-benzofuran-2-carboxamide]: the EC50 with MDA-MB-436 cells (setting [4]) is over 20000 nM; in the assay with ZR-75-1 cells (Homo sapiens, ZR-75-1, 144 h), 1.19e-05 M. Moreover, the IC50 in assay [1] amounted to 3600 nM; in assay [2], 1480 nM; in assay [3] (Homo sapiens, MVLN), 6450 nM.
The like results for `CCN(C)c1ccc2cc(C(=O)NS(=O)(=O)c3ccccc3Cl)oc2c1` [Example 4, N-(2-Chlorophenyl)sulfonyl-6-[ethyl(methyl)amino]benzofuran-2-carboxamide] were, in that order, over 20000 nM, 3.25e-06 M, 2700 nM, 1410 nM and 2570 nM.
For `CN(c1ccccc1)c1ccc2cc(C(=O)NS(=O)(=O)c3ccccc3)oc2c1` [Example 7], the EC50 in the assay with MDA-MB-436 cells (setting [4]) was over 20000 nM; in the assay on ZR-75-1 cells (Homo sapiens, ZR-75-1, 144 h), over 2e-05 M. Moreover, the IC50 in assay [1] is 9600 nM; in assay [2], over 20000 nM; in assay [3] (Homo sapiens, MVLN), over 20000 nM.
Consider `CCOc1ccc(CC)cc1S(=O)(=O)NC(=O)c1cc2ccc(N(C)C)cc2o1` [Example 143, 6-(Dimethylamino)-N-(2-ethoxy-5-ethylbenzene-1-sulfonyl)-1-benzofuran-2-carboxamide], for which the EC50 in the assay on MDA-MB-436 cells (setting [4]) was over 20000 nM; in the assay on ZR-75-1 cells (Homo sapiens, ZR-75-1, 144 h), 6.42e-08 M. For the same molecule, the IC50 came to 29.3 nM in assay [1]; 43.1 nM in assay [2]; 40.8 nM in assay [3] (Homo sapiens, MVLN).
`CCOc1ccccc1S(=O)(=O)NC(=O)c1cc2ccc(N(C)CC)cc2o1` [Example 5, N-(2-Ethoxyphenyl)sulfonyl-6-[ethyl(methyl)amino]benzofuran-2-carboxamide]: the EC50 was over 20000 nM in the assay on MDA-MB-436 cells (setting [4]) and 8.76e-07 M in the assay with ZR-75-1 cells (Homo sapiens, ZR-75-1, 144 h). Also, the IC50 in assay [1] amounted to 1100 nM; in assay [2] it was 495 nM; in assay [3] (Homo sapiens, MVLN), 520 nM.
Regarding `CN(C)c1ccc2cc(C(=O)NS(=O)(=O)c3ccccc3Cl)oc2c1` [Example 22, N-(2-Chlorobenzene-1-sulfonyl)-6-(dimethylamino)-1-benzofuran-2-carboxamide], the EC50 was over 20000 nM with MDA-MB-436 cells (setting [4]) and 2.02e-07 M in the assay with ZR-75-1 cells (Homo sapiens, ZR-75-1, 144 h). Moreover, the IC50 in assay [1] came to 219 nM; in assay [2] it was 200 nM; in assay [3] (Homo sapiens, MVLN) it was 214 nM.
For the molecule `CCCCCOc1ccccc1S(=O)(=O)NC(=O)c1cc2ccc(N(C)C)cc2o1` [Example 90, 6-(Dimethylamino)-N-[2-(pentyloxy)benzene-1-sulfonyl]-1-benzofuran-2-carboxamide], the EC50 with MDA-MB-436 cells (setting [4]) is over 20000 nM; with ZR-75-1 cells (Homo sapiens, ZR-75-1, 144 h), 8.08e-07 M. For the same molecule, the IC50 in assay [1] was 194 nM; in assay [2] it was 357 nM; in assay [3] (Homo sapiens, MVLN), 312 nM.
The like results for `CCOc1ccccc1S(=O)(=O)NC(=O)c1cc2ccc(N(C)C)cc2o1` [Example 223] were, in that order, over 20000 nM, 5.87e-08 M, 106 nM, 99.1 nM and 80.2 nM.
As for `CCN(C)c1ccc2cc(C(=O)NS(=O)(=O)c3ccccc3-c3ccccc3)oc2c1` [Example 1, 6-[Ethyl(methyl)amino]-N-(2-phenylphenyl)sulfonyl-benzofuran-2-carboxamide], the EC50 is over 20000 nM in the assay on MDA-MB-436 cells (setting [4]) and 8.93e-07 M in the assay with ZR-75-1 cells (Homo sapiens, ZR-75-1, 144 h). Moreover, the IC50 in assay [1] came out at 599 nM; in assay [2], 836 nM; in assay [3] (Homo sapiens, MVLN) it was 1840 nM.
Turning to `CCOc1ccccc1S(=O)(=O)NC(=O)c1cc2ccc(N(C)c3ccccc3)cc2o1` [Example 6, N-(2-Ethoxyphenyl)sulfonyl-6-(N-methylanilino)benzofuran-2-carboxamide], the EC50 was over 20000 nM with MDA-MB-436 cells (setting [4]) and over 2e-05 M with ZR-75-1 cells (Homo sapiens, ZR-75-1, 144 h). In addition, the IC50 in assay [1] was 1830 nM; in assay [2], 4280 nM; in assay [3] (Homo sapiens, MVLN), over 20000 nM.
As to `CCCCN(CCCC)c1ccc2cc(C(=O)NS(=O)(=O)c3ccccc3-c3ccccc3)oc2c1` [Example 41, N-([1,1′-Biphenyl]-2-sulfonyl)-6-(dibutylamino)-1-benzofuran-2-carboxamide], the EC50 is 18500 nM in the assay with MDA-MB-436 cells (setting [4]) and 8.3e-06 M in the assay with ZR-75-1 cells (Homo sapiens, ZR-75-1, 144 h). The IC50 is 2310 nM in assay [1]; 2560 nM in assay [2]; 14900 nM in assay [3] (Homo sapiens, MVLN).
In the case of `CC(C)Oc1ccccc1S(=O)(=O)NC(=O)c1cc2ccc(N(C)C)cc2o1` [Example 224], the EC50 is over 20000 nM with MDA-MB-436 cells (setting [4]) and 5.24e-08 M in the assay on ZR-75-1 cells (Homo sapiens, ZR-75-1, 144 h). The IC50 in assay [1] was determined as 58.3 nM; in assay [2] it was 76.4 nM; in assay [3] (Homo sapiens, MVLN), 31.4 nM.
With `CN(C)c1ccc2cc(C(=O)NS(=O)(=O)c3cccc4cccnc34)oc2c1` [Example 73, 6-(Dimethylamino)-N-(quinoline-8-sulfonyl)-1-benzofuran-2-carboxamide], the EC50 with MDA-MB-436 cells (setting [4]) was over 20000 nM; in the assay on ZR-75-1 cells (Homo sapiens, ZR-75-1, 144 h), 2.48e-07 M. In addition, the IC50 is 117 nM in assay [1]; 78.5 nM in assay [2]; 99.4 nM in assay [3] (Homo sapiens, MVLN).
Regarding `COc1ccc(C(C)(C)C)cc1S(=O)(=O)NC(=O)c1cc2ccc(N(C)C)cc2o1` [Example 185, N-((5-(tert-butyl)-2-methoxyphenyl)sulfonyl)-6-(dimethylamino)benzofuran-2-carboxamide], the EC50 is over 20000 nM in the assay with MDA-MB-436 cells (setting [4]) and 1.69e-08 M with ZR-75-1 cells (Homo sapiens, ZR-75-1, 144 h). Besides, the IC50 in assay [1] worked out at 2.63 nM; in assay [2], 13.9 nM; in assay [3] (Homo sapiens, MVLN), 15.1 nM.
Turning to `CN(C)c1ccc2cc(C(=O)NS(=O)(=O)c3cc(C(C)(C)C)ccc3OCc3ccccc3)oc2c1` [Example 179, N-[(2-(Benzyloxy)-5-(tert-butyl)phenyl)sulfonyl]-6-(dimethylamino)benzofuran-2-carboxamide], the EC50 was over 20000 nM in the assay with MDA-MB-436 cells (setting [4]) and 6.79e-08 M with ZR-75-1 cells (Homo sapiens, ZR-75-1, 144 h). In addition, the IC50 is 8.95 nM in assay [1]; 19.4 nM in assay [2]; 15.9 nM in assay [3] (Homo sapiens, MVLN).
